Results as given in publication PMC6199744, “Development of Chemical Proteomics for the Folateome and Analysis of the Kinetoplastid Folateome” (ACS Infectious Diseases, 2018).
Like-named read-outs stand apart in the source and are kept apart here.

What was measured:
Assay type in all cases: binding
[1] = molecular target: T1, HeLa cell extract proteins (Homo sapiens, UniProt P49368)
T1 construct: endogenous in cells; host or cells: HeLa cell extract
T1 sequence (P49368 1-545): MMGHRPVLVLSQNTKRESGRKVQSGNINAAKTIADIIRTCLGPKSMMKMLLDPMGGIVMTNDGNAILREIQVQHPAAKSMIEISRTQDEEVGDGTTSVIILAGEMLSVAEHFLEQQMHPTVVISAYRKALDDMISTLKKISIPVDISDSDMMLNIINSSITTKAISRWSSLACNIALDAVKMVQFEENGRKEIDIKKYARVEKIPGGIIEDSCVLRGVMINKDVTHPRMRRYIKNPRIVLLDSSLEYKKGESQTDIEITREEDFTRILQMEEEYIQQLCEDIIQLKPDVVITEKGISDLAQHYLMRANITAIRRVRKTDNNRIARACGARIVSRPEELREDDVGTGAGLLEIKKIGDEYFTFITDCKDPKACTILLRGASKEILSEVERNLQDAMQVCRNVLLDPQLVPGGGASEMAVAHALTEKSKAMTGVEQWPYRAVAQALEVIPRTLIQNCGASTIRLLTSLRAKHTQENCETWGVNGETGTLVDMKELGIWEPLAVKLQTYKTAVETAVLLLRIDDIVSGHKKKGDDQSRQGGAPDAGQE

[2] = molecular target: T2, HeLa cell extract proteins (Homo sapiens, UniProt P55072)
T2 construct: endogenous in cells; host or cells: HeLa cell extract
T2 sequence (P55072 whole entry): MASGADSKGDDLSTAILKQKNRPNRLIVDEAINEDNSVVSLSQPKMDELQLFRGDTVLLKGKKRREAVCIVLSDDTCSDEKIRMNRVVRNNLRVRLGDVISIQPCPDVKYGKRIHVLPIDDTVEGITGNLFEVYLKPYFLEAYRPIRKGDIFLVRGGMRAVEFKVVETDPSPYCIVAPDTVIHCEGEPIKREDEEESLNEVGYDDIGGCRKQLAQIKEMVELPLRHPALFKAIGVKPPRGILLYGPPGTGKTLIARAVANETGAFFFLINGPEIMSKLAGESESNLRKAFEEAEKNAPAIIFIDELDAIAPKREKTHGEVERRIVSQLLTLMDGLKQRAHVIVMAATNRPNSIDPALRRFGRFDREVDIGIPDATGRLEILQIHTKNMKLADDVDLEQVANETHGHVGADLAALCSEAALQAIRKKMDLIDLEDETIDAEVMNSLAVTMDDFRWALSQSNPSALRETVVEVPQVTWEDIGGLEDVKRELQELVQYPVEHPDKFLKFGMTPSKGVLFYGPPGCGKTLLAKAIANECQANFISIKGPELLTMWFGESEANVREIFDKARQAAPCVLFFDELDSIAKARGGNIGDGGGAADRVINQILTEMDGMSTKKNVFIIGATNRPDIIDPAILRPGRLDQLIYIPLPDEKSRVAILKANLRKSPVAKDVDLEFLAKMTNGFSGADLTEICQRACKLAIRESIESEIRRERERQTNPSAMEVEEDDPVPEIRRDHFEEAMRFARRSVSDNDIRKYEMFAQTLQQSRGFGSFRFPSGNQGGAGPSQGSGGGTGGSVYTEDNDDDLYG

[3] = molecular target: T3, HeLa cell extract proteins (Homo sapiens, UniProt Q00839)
T3 construct: endogenous in cells; host or cells: HeLa cell extract
T3 sequence (Q00839 whole entry): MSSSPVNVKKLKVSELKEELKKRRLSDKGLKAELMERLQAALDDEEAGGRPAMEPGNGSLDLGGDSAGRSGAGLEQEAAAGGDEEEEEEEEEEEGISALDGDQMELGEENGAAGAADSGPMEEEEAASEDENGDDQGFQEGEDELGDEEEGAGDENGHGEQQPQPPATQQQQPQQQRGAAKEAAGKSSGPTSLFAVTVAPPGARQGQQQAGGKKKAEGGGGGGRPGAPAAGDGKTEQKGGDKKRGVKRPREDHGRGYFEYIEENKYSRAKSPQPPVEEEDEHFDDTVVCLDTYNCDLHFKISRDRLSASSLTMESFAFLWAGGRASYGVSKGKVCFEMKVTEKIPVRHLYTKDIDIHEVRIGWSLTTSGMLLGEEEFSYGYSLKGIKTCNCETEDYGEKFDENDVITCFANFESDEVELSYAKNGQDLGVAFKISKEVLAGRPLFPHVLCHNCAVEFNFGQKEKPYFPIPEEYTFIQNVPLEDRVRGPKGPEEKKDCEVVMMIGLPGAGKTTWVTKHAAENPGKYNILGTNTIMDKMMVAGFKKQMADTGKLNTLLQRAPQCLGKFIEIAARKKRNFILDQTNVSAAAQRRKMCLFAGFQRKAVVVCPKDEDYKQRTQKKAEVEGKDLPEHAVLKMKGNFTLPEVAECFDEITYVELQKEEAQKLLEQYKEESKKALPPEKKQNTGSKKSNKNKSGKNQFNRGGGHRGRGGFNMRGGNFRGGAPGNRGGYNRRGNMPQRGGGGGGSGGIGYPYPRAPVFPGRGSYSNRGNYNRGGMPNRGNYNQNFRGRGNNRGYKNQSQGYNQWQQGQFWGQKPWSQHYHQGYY

[4] = molecular target: T4, HeLa cell extract proteins (Homo sapiens, UniProt Q15008)
T4 construct: endogenous in cells; host or cells: HeLa cell extract
T4 sequence (Q15008 1-389): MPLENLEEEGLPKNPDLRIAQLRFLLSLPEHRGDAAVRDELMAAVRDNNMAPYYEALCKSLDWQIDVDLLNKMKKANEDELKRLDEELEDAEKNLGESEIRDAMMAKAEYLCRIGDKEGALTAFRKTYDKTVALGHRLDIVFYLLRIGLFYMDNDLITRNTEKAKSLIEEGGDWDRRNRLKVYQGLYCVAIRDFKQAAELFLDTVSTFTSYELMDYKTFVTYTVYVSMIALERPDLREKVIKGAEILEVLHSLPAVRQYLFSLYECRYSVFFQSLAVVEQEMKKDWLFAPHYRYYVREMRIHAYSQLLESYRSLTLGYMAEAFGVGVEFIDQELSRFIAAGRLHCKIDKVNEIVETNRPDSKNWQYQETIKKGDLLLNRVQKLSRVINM

[5] = molecular target: T5, HeLa cell extract proteins (Homo sapiens, UniProt Q6P2E9)
T5 construct: endogenous in cells; host or cells: HeLa cell extract
T5 sequence (Q6P2E9 1-1401): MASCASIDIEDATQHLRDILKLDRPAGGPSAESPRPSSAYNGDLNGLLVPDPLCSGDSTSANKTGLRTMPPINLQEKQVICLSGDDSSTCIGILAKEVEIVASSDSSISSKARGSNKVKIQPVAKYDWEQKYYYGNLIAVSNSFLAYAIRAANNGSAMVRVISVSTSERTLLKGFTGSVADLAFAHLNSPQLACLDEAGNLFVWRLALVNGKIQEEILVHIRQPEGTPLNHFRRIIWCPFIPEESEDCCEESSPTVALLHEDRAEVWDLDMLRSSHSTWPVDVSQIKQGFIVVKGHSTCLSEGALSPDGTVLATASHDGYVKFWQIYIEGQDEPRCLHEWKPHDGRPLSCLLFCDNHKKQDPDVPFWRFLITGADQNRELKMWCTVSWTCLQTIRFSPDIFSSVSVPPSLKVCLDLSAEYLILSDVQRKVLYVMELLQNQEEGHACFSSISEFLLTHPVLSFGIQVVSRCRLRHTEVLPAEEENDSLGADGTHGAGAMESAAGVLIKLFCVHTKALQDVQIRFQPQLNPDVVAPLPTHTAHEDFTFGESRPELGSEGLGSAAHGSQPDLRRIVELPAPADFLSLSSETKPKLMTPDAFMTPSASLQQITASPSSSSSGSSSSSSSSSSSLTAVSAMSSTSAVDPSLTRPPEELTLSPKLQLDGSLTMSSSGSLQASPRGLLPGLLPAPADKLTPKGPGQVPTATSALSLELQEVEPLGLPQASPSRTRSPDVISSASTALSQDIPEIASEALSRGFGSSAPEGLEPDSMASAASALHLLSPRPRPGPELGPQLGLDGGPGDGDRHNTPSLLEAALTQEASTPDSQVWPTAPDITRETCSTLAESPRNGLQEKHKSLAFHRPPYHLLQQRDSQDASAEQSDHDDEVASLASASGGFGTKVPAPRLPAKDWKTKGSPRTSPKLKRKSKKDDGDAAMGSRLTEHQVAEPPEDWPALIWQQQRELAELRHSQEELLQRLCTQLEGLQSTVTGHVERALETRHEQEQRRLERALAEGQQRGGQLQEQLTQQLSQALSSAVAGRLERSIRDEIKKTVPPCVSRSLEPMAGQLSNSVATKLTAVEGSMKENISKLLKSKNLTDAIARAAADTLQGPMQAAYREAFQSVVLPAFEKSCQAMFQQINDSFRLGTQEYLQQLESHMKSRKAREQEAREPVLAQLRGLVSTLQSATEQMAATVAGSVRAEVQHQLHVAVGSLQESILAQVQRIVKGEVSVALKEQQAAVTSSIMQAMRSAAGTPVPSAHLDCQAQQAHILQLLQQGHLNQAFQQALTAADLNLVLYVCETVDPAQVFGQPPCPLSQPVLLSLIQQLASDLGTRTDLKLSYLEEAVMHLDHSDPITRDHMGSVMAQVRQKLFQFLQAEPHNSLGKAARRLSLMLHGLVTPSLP

[6] = molecular target: T6, HeLa cell extract proteins (Homo sapiens, UniProt Q99720)
T6 construct: endogenous in cells; host or cells: HeLa cell extract
T6 sequence (Q99720 whole entry): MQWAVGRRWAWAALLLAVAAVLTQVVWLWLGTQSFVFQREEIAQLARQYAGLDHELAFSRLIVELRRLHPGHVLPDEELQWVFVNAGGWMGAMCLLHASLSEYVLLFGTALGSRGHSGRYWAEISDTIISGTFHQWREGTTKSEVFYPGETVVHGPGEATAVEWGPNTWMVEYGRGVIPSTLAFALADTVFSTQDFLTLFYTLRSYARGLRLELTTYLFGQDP

## Nc1nc2c(c(=O)[nH]1)N(C=O)C(CNc1ccc(C(=O)N[C@@H](CCC(=O)O)C(=O)O)cc1)CN2 (stereo partly drawn) [LEU, leucovorin]
[1]; protein CCT3, HeLa
  fold changes relative to vehicle control: 0.88
[2]; HeLa, protein VCP
  fold changes relative to vehicle control: 0.98
[3]; protein HNRNPU, HeLa
  fold changes relative to vehicle control: 0.8
[4]; HeLa, protein PSMD6
  fold changes relative to vehicle control: 0.77
[5]; HeLa, protein EDC4
  fold changes relative to vehicle control: 1.03
[6]; HeLa, protein SIGMAR1
  fold changes relative to vehicle control: 1.04

## NCCCNc1ccc(C(=O)NC(CCC(=O)O)C(=O)O)cc1 (stereo not drawn) [compound 7]
[1]; protein CCT3, HeLa
  fold changes relative to vehicle control: 1
[2]; HeLa, protein VCP
  fold changes relative to vehicle control: 1.01
[3]; protein HNRNPU, HeLa
  fold changes relative to vehicle control: 1.04
[4]; HeLa, protein PSMD6
  fold changes relative to vehicle control: 0.82
[5]; HeLa, protein EDC4
  fold changes relative to vehicle control: 0.97
[6]; HeLa, protein SIGMAR1
  fold changes relative to vehicle control: 1.05

## CCCCCCOc1cccc(Cc2cnc(N)nc2N)c1 [compound 2]
[1]; protein CCT3, HeLa
  fold changes relative to vehicle control: 1.72
[2]; protein VCP, HeLa
  fold changes relative to vehicle control: 1.29
[3]; HeLa, protein HNRNPU
  fold changes relative to vehicle control: 1.2
[4]; protein PSMD6, HeLa
  fold changes relative to vehicle control: 1.64
[5]; HeLa, protein EDC4
  fold changes relative to vehicle control: 1.12
[6]; HeLa, protein SIGMAR1
  fold changes relative to vehicle control: 0.99

## CCCCCCOc1ccc(Cc2cnc(N)nc2N)cc1 [compound 1]
[1]; protein CCT3, HeLa
  fold changes relative to vehicle control: 1.22
[2]; protein VCP, HeLa
  fold changes relative to vehicle control: 0.94
[3]; HeLa, protein HNRNPU
  fold changes relative to vehicle control: 0.88
[4]; protein PSMD6, HeLa
  fold changes relative to vehicle control: 0.94
[5]; HeLa, protein EDC4
  fold changes relative to vehicle control: 0.87
[6]; HeLa, protein SIGMAR1
  fold changes relative to vehicle control: 0.99

## Nc1nc2cccc(-c3ccccc3)c2n1Cc1ccc(Cl)c(Cl)c1 [compound 3]
[1]; protein CCT3, HeLa
  fold changes relative to vehicle control: 1.06
[2]; protein VCP, HeLa
  fold changes relative to vehicle control: 0.94
[3]; HeLa, protein HNRNPU
  fold changes relative to vehicle control: 0.96
[4]; protein PSMD6, HeLa
  fold changes relative to vehicle control: 1.72
[5]; HeLa, protein EDC4
  fold changes relative to vehicle control: 0.98
[6]; HeLa, protein SIGMAR1
  fold changes relative to vehicle control: 1.1

## NCCOCCOCC(=O)Nc1nc2ncc(CNc3ccc(C(=O)NC(CCC(=O)O)C(=O)O)cc3)nc2c(=O)[nH]1 (stereo not drawn) [compound 6]
[1]; protein CCT3, HeLa
  fold changes relative to vehicle control: 1.16
[2]; HeLa, protein VCP
  fold changes relative to vehicle control: 1.07
[3]; protein HNRNPU, HeLa
  fold changes relative to vehicle control: 1.18
[4]; HeLa, protein PSMD6
  fold changes relative to vehicle control: 0.89
[5]; HeLa, protein EDC4
  fold changes relative to vehicle control: 1.03
[6]; HeLa, protein SIGMAR1
  fold changes relative to vehicle control: 0.96

## Nc1nc2[nH]cc(CCc3ccc(C(=O)N[C@@H](CCC(=O)O)C(=O)O)cc3)c2c(=O)[nH]1 [PTX, pemetrexed]
[1]
  fold changes relative to vehicle control: 1
[2]
  fold changes relative to vehicle control: 0.98
[3]
  fold changes relative to vehicle control: 0.92
[4]
  fold changes relative to vehicle control: 0.69
[5]
  fold changes relative to vehicle control: 1.02
[6]
  fold changes relative to vehicle control: 0.99
